Data reported in ChEMBL document CHEMBL1201862, “PubChem BioAssay data set” (2004).
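How tested: cells in 96-well plates exposed to compound for 48 hours at five concentrations. GI50: concentration for 50% inhibition of growth.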 Active and inactive are the calls of the source. Rule as the data show it: active = GI50 up to about 1.1 µM and inactive = higher.

What was measured:
Assay in all cases: NCI-60 cell line screen, 48 h
786-0 = test system: 786-0
A549 = test system: A549
ACHN = test system: ACHN
BT-549 = test system: BT-549
CCRF-CEM = test system: CCRF-CEM
DU-145 = test system: DU-145
K562 = test system: K562
MDA-N = test system: MDA-N
MOLT-4 = test system: MOLT-4
NCI-H226 = test system: NCI-H226
OVCAR-4 = test system: OVCAR-4
RXF 393 = test system: RXF 393
SF-268 = test system: SF-268
SF-295 = test system: SF-295
SNB-75 = test system: SNB-75
SR = test system: SR
SW-620 = test system: SW-620
UO-31 = test system: UO-31
RPMI-8226 = test system: RPMI-8226

SMILES	GI50 (786-0)	GI50 (A549)	GI50 (ACHN)	GI50 (BT-549)	GI50 (CCRF-CEM)	GI50 (DU-145)	GI50 (K562)	GI50 (MDA-N)	GI50 (MOLT-4)	GI50 (NCI-H226)	GI50 (OVCAR-4)	GI50 (RXF 393)	GI50 (SF-268)	GI50 (SF-295)	GI50 (SNB-75)	GI50 (SR)	GI50 (SW-620)	GI50 (UO-31)	GI50 (RPMI-8226)
O=C(O)c1[nH]c2c([N+](=O)[O-])cc([N+](=O)[O-])cc2c1C(=O)O	> 100 µM (inactive)	> 100 µM (inactive)	> 100 µM (inactive)	> 100 µM (inactive)	> 100 µM (inactive)	> 100 µM (inactive)	> 100 µM (inactive)	29.9 µM (inactive)	> 100 µM (inactive)	> 100 µM (inactive)	> 100 µM (inactive)	> 100 µM (inactive)	> 100 µM (inactive)	> 100 µM (inactive)	> 100 µM (inactive)	75.5 µM (inactive)	> 100 µM (inactive)	> 100 µM (inactive)	–
NNC(=O)CNc1cccc(Br)c1	> 100 µM (inactive)	> 100 µM (inactive)	> 100 µM (inactive)	> 100 µM (inactive)	–	> 100 µM (inactive)	> 100 µM (inactive)	> 100 µM (inactive)	–	> 100 µM (inactive)	> 100 µM (inactive)	> 100 µM (inactive)	> 100 µM (inactive)	> 100 µM (inactive)	> 100 µM (inactive)	> 100 µM (inactive)	> 100 µM (inactive)	> 100 µM (inactive)	> 100 µM (inactive)
OCC1OC(NC(=S)NCSCCC(F)(F)C(F)(F)C(F)(F)C(F)(F)C(F)(F)C(F)(F)F)C(O)C(O)C1O (stereo unspecified)	45.8 µM (inactive)	58.1 µM (inactive)	35.2 µM (inactive)	> 100 µM (inactive)	23.3 µM (inactive)	81.8 µM (inactive)	19.9 µM (inactive)	43.6 µM (inactive)	21.5 µM (inactive)	–	> 100 µM (inactive)	35.2 µM (inactive)	15.2 µM (inactive)	23.1 µM (inactive)	96.4 µM (inactive)	49.3 µM (inactive)	39.4 µM (inactive)	> 100 µM (inactive)	63.8 µM (inactive)
CC(=O)O[C@@H](C1C[C@@H](C)[C@H]2[C@@](O)(O1)[C@H](O)[C@@]1(C)C3=CC[C@H]4C(C)(C)[C@@H](OC5OCC(O)C(O)C5O)CC[C@@]45C[C@@]35CC[C@]21C)C(C)(C)O (stereo partly specified)	26.1 µM (inactive)	30.6 µM (inactive)	20.8 µM (inactive)	26.7 µM (inactive)	2.82 µM (inactive)	25.5 µM (inactive)	28.2 µM (inactive)	26.9 µM (inactive)	12.3 µM (inactive)	20.6 µM (inactive)	33.9 µM (inactive)	15.9 µM (inactive)	34 µM (inactive)	21.1 µM (inactive)	–	14.7 µM (inactive)	30.2 µM (inactive)	30.2 µM (inactive)	18 µM (inactive)
NC(Cc1ccc2oc3cc(=O)c4ccccc4c-3nc2c1)C(=O)O (stereo unspecified)	50.2 µM (inactive)	16.7 µM (inactive)	55.7 µM (inactive)	14.4 µM (inactive)	40.7 µM (inactive)	15.5 µM (inactive)	34.2 µM (inactive)	6.73 µM (inactive)	41.1 µM (inactive)	27.3 µM (inactive)	67.5 µM (inactive)	77.6 µM (inactive)	43 µM (inactive)	22.3 µM (inactive)	11.2 µM (inactive)	16.6 µM (inactive)	29.3 µM (inactive)	33.8 µM (inactive)	42.2 µM (inactive)
CCC(C)(O)c1cnc(CC(C)C)c(=O)n1O (stereo unspecified)	57.7 µM (inactive)	43.9 µM (inactive)	59.7 µM (inactive)	> 100 µM (inactive)	29.2 µM (inactive)	> 100 µM (inactive)	18.5 µM (inactive)	73.5 µM (inactive)	21.4 µM (inactive)	–	74.3 µM (inactive)	> 100 µM (inactive)	36.8 µM (inactive)	36.6 µM (inactive)	31.6 µM (inactive)	17.2 µM (inactive)	37.1 µM (inactive)	40.1 µM (inactive)	11.5 µM (inactive)
C#C/C=C/CC1OC(C(Br)CC)CC(Br)C2CC1O2 (stereo unspecified)	7.69 µM (inactive)	68.7 µM (inactive)	39.4 µM (inactive)	38.9 µM (inactive)	38.6 µM (inactive)	> 100 µM (inactive)	29 µM (inactive)	80.5 µM (inactive)	29.4 µM (inactive)	> 100 µM (inactive)	37.8 µM (inactive)	48.6 µM (inactive)	> 100 µM (inactive)	> 100 µM (inactive)	52.1 µM (inactive)	34.6 µM (inactive)	34.8 µM (inactive)	–	27.1 µM (inactive)
Nc1nc(NCC2(CO)CC(CCc3ccccc3)C2)cc(=O)[nH]1 (stereo unspecified)	> 100 µM (inactive)	> 100 µM (inactive)	–	> 100 µM (inactive)	78.2 µM (inactive)	> 100 µM (inactive)	26.2 µM (inactive)	> 100 µM (inactive)	55.2 µM (inactive)	> 100 µM (inactive)	> 100 µM (inactive)	> 100 µM (inactive)	> 100 µM (inactive)	> 100 µM (inactive)	> 100 µM (inactive)	> 100 µM (inactive)	> 100 µM (inactive)	18.2 µM (inactive)	46.7 µM (inactive)
Cc1cc(C)c2c(n1)S(=O)(=O)N(CCCN1CCN(c3cccc(C(F)(F)F)c3)CC1)c1c-2nn(C)c1C	> 100 µM (inactive)	65.6 µM (inactive)	> 100 µM (inactive)	> 100 µM (inactive)	66.7 µM (inactive)	> 100 µM (inactive)	30.3 µM (inactive)	39.9 µM (inactive)	10.8 µM (inactive)	30.7 µM (inactive)	75.3 µM (inactive)	> 100 µM (inactive)	> 100 µM (inactive)	52.7 µM (inactive)	> 100 µM (inactive)	19.4 µM (inactive)	> 100 µM (inactive)	44.4 µM (inactive)	–
CCCCCCCCCCCCOC1C(COCCN2CCCCC2)OC2OC(C)(C)OC21 (stereo unspecified)	1.73 µM (inactive)	6.58 µM (inactive)	2.12 µM (inactive)	2.21 µM (inactive)	1.1 µM (active)	10 µM (inactive)	1.11 µM (active)	1.53 µM (inactive)	1.53 µM (inactive)	3.99 µM (inactive)	–	1.7 µM (inactive)	2.67 µM (inactive)	1.69 µM (inactive)	–	< 0.01 µM (active)	1.77 µM (inactive)	1.59 µM (inactive)	1.52 µM (inactive)
O=C(Nc1nn(C(=O)c2ccc(Cl)cc2)c(=O)s1)c1ccc(Cl)cc1	> 100 µM (inactive)	> 100 µM (inactive)	> 100 µM (inactive)	> 100 µM (inactive)	76.4 µM (inactive)	> 100 µM (inactive)	77.8 µM (inactive)	> 100 µM (inactive)	> 100 µM (inactive)	> 100 µM (inactive)	> 100 µM (inactive)	46.9 µM (inactive)	> 100 µM (inactive)	> 100 µM (inactive)	–	> 100 µM (inactive)	> 100 µM (inactive)	> 100 µM (inactive)	–
O=[N+]([O-])c1cccc(Cl)c1Oc1ccc(S(=O)(=O)N/C(=N\O)Nc2ccc(Cl)cc2)cc1	12.9 µM (inactive)	13.9 µM (inactive)	14.1 µM (inactive)	14.5 µM (inactive)	2.55 µM (inactive)	15.5 µM (inactive)	14.3 µM (inactive)	12.7 µM (inactive)	3.11 µM (inactive)	21.2 µM (inactive)	7.1 µM (inactive)	13.8 µM (inactive)	9.1 µM (inactive)	16.1 µM (inactive)	–	6.14 µM (inactive)	15.1 µM (inactive)	9.1 µM (inactive)	6.01 µM (inactive)
CC1CCCN(CP(=O)(c2ccccc2)c2ccccc2)C1 (stereo unspecified)	> 100 µM (inactive)	> 100 µM (inactive)	> 100 µM (inactive)	> 100 µM (inactive)	–	> 100 µM (inactive)	> 100 µM (inactive)	> 100 µM (inactive)	–	> 100 µM (inactive)	94.4 µM (inactive)	> 100 µM (inactive)	> 100 µM (inactive)	> 100 µM (inactive)	> 100 µM (inactive)	> 100 µM (inactive)	> 100 µM (inactive)	> 100 µM (inactive)	43.5 µM (inactive)
CC1=C(C(=O)NNC(=O)C[N+](C)(C)C)CC(C(=O)NNC(=O)C[N+](C)(C)C)=C(C)N1	> 100 µM (inactive)	> 100 µM (inactive)	> 100 µM (inactive)	> 100 µM (inactive)	21.8 µM (inactive)	> 100 µM (inactive)	> 100 µM (inactive)	> 100 µM (inactive)	> 100 µM (inactive)	> 100 µM (inactive)	> 100 µM (inactive)	> 100 µM (inactive)	> 100 µM (inactive)	> 100 µM (inactive)	–	35.6 µM (inactive)	> 100 µM (inactive)	68.4 µM (inactive)	> 100 µM (inactive)
Oc1ccc(-c2nc3ccc(F)cc3s2)cc1	18.5 µM (inactive)	19.8 µM (inactive)	19.1 µM (inactive)	18.1 µM (inactive)	–	15.2 µM (inactive)	29.4 µM (inactive)	23.5 µM (inactive)	27 µM (inactive)	18.6 µM (inactive)	23 µM (inactive)	25.3 µM (inactive)	23.2 µM (inactive)	19.1 µM (inactive)	–	26.1 µM (inactive)	29.9 µM (inactive)	15.2 µM (inactive)	35.7 µM (inactive)
